Laboratory results reported in ChEMBL document CHEMBL5500341, “Discovery of pyrido[3,2-d]pyrimidin-6(5H)-one derivatives as checkpoint kinase 1 (CHK1) inhibitors with potent antitumor efficacy” (Eur J Med Chem, 2024).
Activity calls are given as the source filed them. The rule behind the calls is not given here.

Columns and labels:
MV4-11 = experiment: Antiproliferative activity against human MV4-11 cells assessed as inhibition of cell proliferation incubated for 72 hrs by CCK-8 assay; type: functional, cell-based; details: MV4-11, 72 h
HT-29 [1] = experiment: cells; details: Homo sapiens, HT-29, 72 h
Description: Antiproliferative activity against human HT-29 cells assessed as inhibition of cell proliferation incubated for 72 hrs by CCK-8 assay

[2] = Metabolic stability in human liver microsome assessed as half life preincubated with compound for 10 mins followed by NADPH addition and measured up to 60 min by LC-MS/MS analysis; type: ADME; details: liver microsomes, time < 70 min
[3] = Metabolic stability in human microsome assessed as intrinsic clearance preincubated with compound for 10 mins followed by NADPH addition and measured up to 60 min by LC-MS/MS analysis; type: ADME; details: microsomes, time < 70 min, read-out: CLH
[4] = Metabolic stability in human liver microsome assessed as intrinsic clearance preincubated with compound for 10 mins followed by NADPH addition and measured up to 60 min by LC-MS/MS analysis; type: ADME; details: liver microsomes, time < 70 min, read-out: CLH
HT-29 [5] = experiment: Synergistic antiproliferative activity against human HT-29 cells assessed as inhibition of cell proliferation incubated for 72 hrs in presence of 50 nM gemcitabine by CCK-8 assay; type: functional, cell-based; details: HT-29, 72 h
A549 = experiment: cells; details: Homo sapiens, A549, 72 h
Description: Antiproliferative activity against human A549 cells assessed as inhibition of cell proliferation incubated for 72 hrs by CCK-8 assay

OVCAR-3 = experiment: cells; details: Homo sapiens, OVCAR-3, 72 h
Description: Antiproliferative activity against human OVCAR-3 cells assessed as inhibition of cell proliferation incubated for 72 hrs by CCK-8 assay

HL-60 = experiment: cells; details: Homo sapiens, HL-60, 72 h
Description: Antiproliferative activity against human HL-60 cells assessed as inhibition of cell proliferation incubated for 72 hrs by CCK-8 assay

HCT-116 = experiment: cells; details: Homo sapiens, HCT-116, 72 h
Description: Antiproliferative activity against human HCT-116 cells assessed as inhibition of cell proliferation incubated for 72 hrs by CCK-8 assay

A2780 = experiment: cells; details: Homo sapiens, A2780, 72 h
Description: Antiproliferative activity against human A2780 cells assessed as inhibition of cell proliferation incubated for 72 hrs by CCK-8 assay

MDA-MB-468 = experiment: cells; details: Homo sapiens, MDA-MB-468, 72 h
Description: Antiproliferative activity against human MDA-MB-468 cells assessed as inhibition of cell proliferation incubated for 72 hrs by CCK-8 assay

[6] = target: T1, Serine/threonine-protein kinase Chk1 (Homo sapiens) (UniProt O14757); experiment: Inhibition of CHK1 in human MV4-11 cells assessed as decrease in S296 phosphorylation at 11.11 nM measured for 24 hrs by Western blot analysis; type: cell-based
T1 sequence (whole entry): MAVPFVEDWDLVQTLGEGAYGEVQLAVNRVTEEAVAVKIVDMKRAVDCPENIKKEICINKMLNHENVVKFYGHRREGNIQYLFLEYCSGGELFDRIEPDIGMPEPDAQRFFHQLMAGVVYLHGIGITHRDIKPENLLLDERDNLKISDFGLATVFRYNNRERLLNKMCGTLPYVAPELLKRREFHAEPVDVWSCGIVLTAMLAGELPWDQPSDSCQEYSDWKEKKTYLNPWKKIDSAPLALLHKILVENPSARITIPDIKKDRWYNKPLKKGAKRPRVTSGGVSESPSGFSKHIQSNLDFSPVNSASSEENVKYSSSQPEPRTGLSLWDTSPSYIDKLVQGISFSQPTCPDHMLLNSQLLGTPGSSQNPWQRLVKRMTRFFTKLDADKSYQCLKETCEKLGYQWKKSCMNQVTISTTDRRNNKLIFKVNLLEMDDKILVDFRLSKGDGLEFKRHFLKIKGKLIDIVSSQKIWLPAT

HT-29 [7] = experiment: Synergistic antiproliferative activity against human HT-29 cells assessed as inhibition of cell proliferation incubated for 72 hrs in presence of 50 nM 5-((4-((morpholin-2-ylmethyl)amino)-5-(trifluoromethyl)pyridin-2-yl)amino)pyrazine-2-carbonitrile by CCK-8 assay; type: functional, cell-based; details: HT-29, 72 h
HT-29 [8] = experiment: Antitumor activity against human HT-29 cells xenografted in female BALB/c mouse assessed as tumor growth inhibition at 30 mg/kg, iv administered once daily for 21 days and measured after 3 days by vernier calipers analysis; details: HT-29, 576 h, read-out: TGI

Row | SMILES | IC50 (MV4-11) [µM] | other results
1 | N#Cc1ncc(Nc2ncc3c(ccc(=O)n3CC(F)F)n2)cc1N[C@H]1CC[C@H](N)CC1 | 2.67 | –
2 | N#Cc1ncc(Nc2ncc3c(ccc(=O)n3CC(F)(F)F)n2)cc1N[C@H]1CCNC1 | > 10 | –
3 | N#Cc1ncc(Nc2ncc3c(ccc(=O)n3CC(F)F)n2)cc1NCCN | > 10 | –
4 | N#Cc1ncc(Nc2ncc3[nH]c(=O)ccc3n2)cc1N[C@H]1CC[C@@H](N)CC1 | 0.0565 | IC50 (HT-29 [1]): > 10 µM
5 | N#Cc1ncc(Nc2ncc3[nH]c(=O)ccc3n2)cc1NC1CCNC1 (single isomer, unassigned) | > 10 | IC50 (HT-29 [1]): > 10 µM
6 | N#Cc1ncc(Nc2ncc3c(ccc(=O)n3CC(F)F)n2)cc1O[C@@H]1CCNC1 | > 10 | –
7 | N#Cc1ncc(Nc2ncc3c(n2)CCC(=O)N3)cc1NC1CCNC1 (single isomer, unassigned) | > 10 | IC50 (HT-29 [1]): > 10 µM
8 | N#Cc1ncc(Nc2ncc3c(ccc(=O)n3CC(F)F)n2)cc1N[C@@H]1CCCNC1 | 3.63 | –
9 | N#Cc1ncc(Nc2ncc3[nH]c(=O)ccc3n2)cc1NCCN | – | IC50 (HT-29 [1]): > 10 µM
10 | N#Cc1ncc(Nc2ncc3c(ccc(=O)n3CC(F)F)n2)cc1NC[C@H]1CCNC1 | > 10 | –
11 | N#Cc1ncc(Nc2ncc3c(ccc(=O)n3CC(N)=O)n2)cc1N[C@H]1CC[C@@H](N)CC1 | 8.64 | –
12 | N#Cc1ncc(Nc2ncc3c(ccc(=O)n3CC(F)F)n2)cc1OCC1CCNCC1 | > 10 | –
13 | N#Cc1ncc(Nc2ncc3[nH]c(=O)ccc3n2)cc1N[C@H]1CC[C@H](N)CC1 | 0.0394 | IC50 (HT-29 [1]): > 10 µM
14 | N#Cc1ncc(Nc2ncc3c(ccc(=O)n3CC(F)F)n2)cc1OCCCN | > 10 | –
15 | N#Cc1ncc(Nc2ncc3[nH]c(=O)ccc3n2)cc1N1CCOCC1 | – | IC50 (HT-29 [1]): > 10 µM
16 | N#Cc1ncc(Nc2ncc3c(ccc(=O)n3CC(F)F)n2)cc1OC1CCNCC1 | > 10 | –
17 | N#Cc1ncc(Nc2ncc3c(ccc(=O)n3CC(F)F)n2)cc1O[C@H]1CCCNC1 | > 10 | –
18 | Cn1c(=O)ccc2nc(Nc3cnc(C#N)c(N[C@H]4CC[C@@H](N)CC4)c3)ncc21 | 0.883 | –

Row | SMILES | IC50 (MV4-11) [µM] | other results
19 | N#Cc1ncc(Nc2ncc3c(ccc(=O)n3CC(F)F)n2)cc1NC1CCNCC1 | > 10 | –
20 | N#Cc1ncc(Nc2ncc3c(ccc(=O)n3CC(F)F)n2)cc1NCC1CCCCN1 (configuration not stated) | 3.8 | –
21 | CC(C)(C)OC(=O)N1CCC(Nc2cc(Nc3ncc4c(n3)CCC(=O)N4)cnc2C#N)C1 (single isomer, unassigned) | > 10 | IC50 (HT-29 [1]): > 10 µM
22 | N#Cc1ncc(Nc2ncc3[nH]c(=O)ccc3n2)cc1NC[C@@H]1CCCNC1 | – | IC50 (HT-29 [1]): > 10 µM
23 | CC(C)n1c(=O)ccc2nc(Nc3cnc(C#N)c(N[C@H]4CC[C@@H](N)CC4)c3)ncc21 | 2.19 | –
24 | CCn1c(=O)ccc2nc(Nc3cnc(C#N)c(N[C@H]4CC[C@@H](N)CC4)c3)ncc21 | 2.23 | –
25 | N#Cc1ncc(Nc2ncc3c(ccc(=O)n3CC(F)F)n2)cc1OC[C@H]1CCCNC1 | > 10 | –
26 | N#Cc1ncc(Nc2ncc3c(ccc(=O)n3CC(F)F)n2)cc1N[C@H]1CC[C@@H](N)CC1 | 2.47 | –
27 | O=C(O)Cc1ccccc1Nc1c(Cl)cccc1Cl [DICLOFENAC] | – | half-life [2]: 5.14 min; microsomal CLint [3]: 269 µL/min/mg; CLint scaled [4]: 242 mL/min/kg
28 | N#Cc1cnc(Nc2cc(NC[C@H]3CNCCO3)c(C(F)(F)F)cn2)cn1 [SRA-737] | – | IC50 (HT-29 [5]): 177 nM; IC50 (HT-29 [1]): > 10 µM; IC50 (A549): > 10 µM; IC50 (OVCAR-3): > 10 µM; IC50 (HL-60): > 10 µM; IC50 (HCT-116): > 10 µM; IC50 (A2780): > 10 µM; IC50 (MDA-MB-468): > 10 µM
29 | N#Cc1ncc(Nc2ncc3c(ccc(=O)n3CC(=O)O)n2)cc1N[C@H]1CC[C@@H](N)CC1 | > 10 | –
30 | Nc1ccn([C@@H]2O[C@H](CO)[C@@H](O)C2(F)F)c(=O)n1 [GEMCITABINE] | – | inhibition [6]: Active; IC50 (HT-29 [7]): 177 nM; inhibition in vivo at 30 mg/kg (HT-29 [8]): 33.5%
31 | N#Cc1ncc(Nc2ncc3[nH]c(=O)ccc3n2)cc1N[C@H]1CCCNC1 | 0.0195 | IC50 (HT-29 [1]): > 10 µM
32 | N#Cc1ncc(Nc2ncc3c(ccc(=O)n3CC(F)F)n2)cc1O[C@@H]1CCCNC1 | 4.88 | –
33 | N#Cc1ncc(Nc2ncc3c(ccc(=O)n3CC(F)(F)F)n2)cc1N[C@H]1CC[C@@H](N)CC1 | 2.11 | –
34 | CN1CCC(Oc2cc(Nc3ncc4c(ccc(=O)n4CC(F)F)n3)cnc2C#N)CC1 | > 10 | –
35 | CN(C)CCNc1cc(Nc2ncc3c(ccc(=O)n3CC(F)F)n2)cnc1C#N | 3.81 | –
